# Experimental data reported in patent US3935309A, “Synergistic combinations of phosphonomycin and bacteriostatic agents” (Merck & Co., Inc., priority 1974, dated 1976).
# Read-outs that look alike come from different tables or passages of the source.
# Columns and labels:
# Escherichia coli 2017 = test: Combined antibiotic therapy of Escherichia coli infection in mice (Example 5); type: in vivo, mice infected with Escherichia coli 2017; parameters: ED50: unit not given beside the values; details: for ED50 / % of effective dose: first test
# Source text: (§1) For example, using Escherichia coli 2017 as the infecting agent, sodium phosphonomycin was titrated alone and in the presence 5 and also in the presence of 0.5γtetracycline, while tetracycline was titrated alone and in the presence of 50γ, and also in the presence of 5γof sodium phosphonomycin. The two drugs were given by the subcutaneous route at separate sites on the ventral surface of the mouse. Such therapy was given only at the time of infection for the Escherichia coli and Pseudomonas aeruginosa tests but both at the time of infection and 6 hours later for all other tests. Infection was given intraperitoneally using broth suspensions of the test organism.
# Staphylococcus aureus [1] = test: criss-cross MIC method in nutrient broth (Example 2); type: cell-based; details: 37°C, 24 hours, two experiments on different days
# Method: This method involved the simultaneous determination of the MIC (minimum inhibitory concentration) of each member of a pair of antibiotics and of combinations of the two in nutrient broth (NB) containing 0.2% yeast extract (YE). Serial two-fold dilutions were made throughout the experiment, and the starting inoculum consisted of approximately 25,000 cells/ml. of Staphylococcus aureus. Incubation was at 37°C. for 24 hours. Identical experiments were performed on two different days.
# Pseudomonas aeruginosa = test: MIC by two-fold serial broth dilution, alone and in combination (Example 1); type: cell-based; details: for MIC: Pseudomonas aeruginosa, read-out: MIC of 2nd Subst.
# Method: (§2) The MIC (minimum inhibitory concentration) of phosphonomycin and each of the other antibiotics by itself was determined before the combination synergy experiment was begun, as follows: 2 ml. of a double strength solution in sterile distilled water of the highest strength to be tested (usually 1000γ) was added to a tube of double strength nutrient broth (NB) and mixed thoroughly. Two-fold serial dilutions were then made by transferring 2 ml. to the next tube (1 × NB) and so on for approximately 12 tubes. The tubes were inoculated with one drop each of a 1:50 dilution of a culture adjusted to a Lumetron 60 reading in NB + 0.2% yeast extract so as to provide a concentration of cells of approximately 25,000/ml. The tubes were then incubated at 37°C. and examined for growth at 24, 48 and 72 hours.
# (§3) In the combination experiment, the MIC value obtained as described above was used as approximately the midpoint of the range to be tested for each of the two antibiotics of the combination. In a manner similar to the above, two-fold dilutions of the first substance in the combination were made except that 1.8 ml. volumes were used and a 2.2 × strength solution of both the antibiotic and the NB were made. The second antibiotic of the combination was added to duplicate rows of serial dilutions of the first substance as follows: 0.2 ml. in NB of a [formula] and a [formula] respectively, of the second substance was added to each tube in a row of serial dilutions of the first antibiotic. The final concentration that resulted enabled the determination of the effect of both MIC/4 and MIC/8 of each substance in the presence of from approximately 32 MIC to [formula] of the other. Inocula were added as in the initial single MIC experiment.
# Staphylococcus aureus [2] = test: as above; type: cell-based; details: for MIC: Staphylococcus aureus, read-out: MIC of 2nd Subst.
# Method: as §2, §3
# Streptococcus faecalis = test: as above; type: cell-based; details: for MIC: Enterococcus faecalis, read-out: MIC of 2nd Subst.
# Method: as §2, §3
# Klebsiella pneumoniae = test: as above; type: cell-based
# Method: as §2, §3
# Proteus vulgaris = test: as above; type: cell-based; details: for MIC: Proteus vulgaris, read-out: MIC of 2nd Subst.
# Method: as §2, §3
# Pseudomonas stutzeri = test: as above; type: cell-based
# Method: as §2, §3
# pathogenic bacteria = test: in vitro combination tests with various pathogens (general description); type: cell-based; details: for potentiation when combined with phosphonomycin: various strains of pathogenic bacteria
# Source text: Other experimental results have shown that novobiocin, chlortetracycline and sulfisoxazole are potentiated when combined with phosphonomycin and tested with various strains of pathogenic bacteria.
# [3] = system: Klebsiella pneumoniae "B"; test: Combined antibiotic therapy of experimental infection in mice (Example 5); type: in vivo, mice infected with Klebsiella pneumoniae "B"; details: for s.c. ED50: 7 LD50
# Source text: as §1
# [4] = system: Pseudomonas aeruginosa 3210; test: as above; type: in vivo, mice infected with Pseudomonas aeruginosa 3210; details: for s.c. ED50: 10 LD50
# Source text: as §1
# [5] = system: Streptococcus pyogenes 3009; test: as above; type: in vivo, mice infected with Streptococcus pyogenes 3009; details: 6 LD50
# Source text: as §1
# [6] = chloramphenicol repeat test, 7 LD50, chloramphenicol titrated, phosphonomycin constant 5
# [7] = chloramphenicol repeat test, 7 LD50, chloramphenicol titrated, phosphonomycin constant 50
# [8] = chloramphenicol test 1, 9 LD50, chloramphenicol titrated, phosphonomycin constant 10
# [9] = chloramphenicol test 1, 9 LD50, chloramphenicol titrated, phosphonomycin constant 100
# [10] = in presence of MIC/2 instead of ≤ MIC/4
# [11] = alone, therapy at 0 and 6 hours, phosphonomycin as sodium salt
# [12] = novobiocin itself, at the levels tested
# [13] = combination of 54% tetracycline with .5% sodium phosphonomycin
# [14] = phosphonomycin titrated in the presence of 0.5γ tetracycline
# [15] = tetracycline titrated in the presence of 50γ sodium phosphonomycin
# [16] = tetracycline repeat test, 7 LD50, tetracycline titrated, phosphonomycin constant 0.5
# [17] = tetracycline repeat test, 7 LD50, tetracycline titrated, phosphonomycin constant 50
# [18] = tetracycline test 1, 9 LD50, alone
# [19] = tetracycline test 1, 9 LD50, tetracycline titrated, phosphonomycin constant 5
# [20] = tetracycline test 1, 9 LD50, tetracycline titrated, phosphonomycin constant 50
# [21] = tetracycline titrated, phosphonomycin constant 500
# [22] = tetracycline titrated, phosphonomycin constant 1000
structure (smiles),measurement,setting,value
O=C(N[C@H](CO)[C@H](O)c1ccc([N+](=O)[O-])cc1)C(Cl)Cl [Chloramphenicol],% ED50,"Escherichia coli 2017; chloramphenicol repeat test, 7 LD50, alone",100%
same,s.c. ED50,"Escherichia coli 2017; chloramphenicol repeat test, 7 LD50, alone, single dose at 0 hour, phosphonomycin as sodium salt",120 µg
same,% ED50,Escherichia coli 2017; [6],39%
same,s.c. ED50,Escherichia coli 2017; [6],47 µg
same,% ED50,Escherichia coli 2017; [7],17%
same,s.c. ED50,Escherichia coli 2017; [7],20 µg
same,% ED50,"Escherichia coli 2017; chloramphenicol repeat test, 7 LD50, phosphonomycin titrated, chloramphenicol constant 5",4%
same,% ED50,"Escherichia coli 2017; chloramphenicol repeat test, 7 LD50, phosphonomycin titrated, chloramphenicol constant 50",42%
same,% ED50,"Escherichia coli 2017; chloramphenicol test 1, 9 LD50, alone",100%
same,% ED50,Escherichia coli 2017; [8],55%
same,s.c. ED50,Escherichia coli 2017; [8],250 µg
same,% ED50,Escherichia coli 2017; [9],24%
same,s.c. ED50,Escherichia coli 2017; [9],107 µg
same,% ED50,"Escherichia coli 2017; chloramphenicol test 1, 9 LD50, phosphonomycin titrated, chloramphenicol constant 3",1%
same,% ED50,"Escherichia coli 2017; chloramphenicol test 1, 9 LD50, phosphonomycin titrated, chloramphenicol constant 30",7%
same,MIC,"Staphylococcus aureus [1]; Staphylococcus aureus, 24 h, read-out: CLM MIC, alone",7.8 µg/mL
same,CLM MIC,"Staphylococcus aureus [1]; alone, listed as CLM",3.9 µg/mL
CO[C@@H]1[C@@H](OC(N)=O)[C@@H](O)[C@H](Oc2ccc3c(O)c(NC(=O)c4ccc(O)c(CC=C(C)C)c4)c(=O)oc3c2C)OC1(C)C [Novobiocin],MIC of 2nd Subst. in presence of ≤ MIC/4 of phosphonomycin,Pseudomonas aeruginosa,62.5
same,MIC,Pseudomonas aeruginosa,250 µg/mL
same,MIC,Staphylococcus aureus [2],0.06 µg/mL
same,MIC of 2nd Subst. in presence of phosphonomycin,Staphylococcus aureus [2]; [10],0.015 µg/mL
same,MIC of 2nd Subst. in presence of ≤ MIC/4 of phosphonomycin,Streptococcus faecalis,4
same,MIC,Streptococcus faecalis,4 µg/mL
same,MIC of 2nd Subst. in presence of ≤ MIC/4 of phosphonomycin,Klebsiella pneumoniae,< 2
same,MIC,"Klebsiella pneumoniae; Klebsiella pneumoniae, alone, read-out: MIC of 2nd Subst.",32 µg/mL
same,MIC of 2nd Subst. in presence of ≤ MIC/4 of phosphonomycin,Proteus vulgaris,3.9
same,MIC,Proteus vulgaris,32 µg/mL
same,MIC of 2nd Subst. in presence of ≤ MIC/4 of phosphonomycin,Pseudomonas stutzeri,8
same,MIC,"Pseudomonas stutzeri; Stutzerimonas stutzeri, alone, read-out: MIC of 2nd Subst.",32 µg/mL
same,control of pathogens by combination with phosphonomycin,pathogenic bacteria,effective in controlling pathogens which cannot be effectively controlled by either antibiotic separately
same,potentiation when combined with phosphonomycin,pathogenic bacteria,potentiated
same,s.c. ED50,[3]; [11],> 2500 µg
same,s.c. ED50,"[3]; novobiocin titrated, phosphonomycin > 100",> 2500 µg
same,s.c. ED50,[3]; novobiocin with phosphonomycin > 10,> 2500 µg
same,protection of mice,[3]; [12],did not protect
same,s.c. ED50,"[4]; alone, therapy at 0 hour only, phosphonomycin as sodium salt",> 10000 µg
same,s.c. ED50,"[4]; novobiocin titrated, phosphonomycin > 20",> 10000 µg
same,s.c. ED50,[4]; novobiocin with phosphonomycin >200,> 10000 µg
same,protection of mice,[4]; [12],did not protect
CC[C@H]1OC(=O)[C@H](C)[C@@H](O[C@H]2C[C@@](C)(OC)[C@@H](O)[C@H](C)O2)[C@H](C)[C@@H](O[C@@H]2O[C@H](C)C[C@H](N(C)C)[C@H]2O)[C@](C)(O)C[C@@H](C)C(=O)[C@H](C)[C@@H](O)[C@]1(C)O [Erythromycin],MIC,Pseudomonas aeruginosa,> 16000 µg/mL
same,MIC of 2nd Subst. in presence of ≤ MIC/4 of phosphonomycin,Pseudomonas aeruginosa; resistant growth present,2000
same,MIC of 2nd Subst. in presence of ≤ MIC/4 of phosphonomycin,Staphylococcus aureus [2],2
same,MIC,Staphylococcus aureus [2],8 µg/mL
same,MIC of 2nd Subst. in presence of ≤ MIC/4 of phosphonomycin,Streptococcus faecalis,16
same,MIC,Streptococcus faecalis,32 µg/mL
same,MIC,Proteus vulgaris,1000 µg/mL
same,MIC of 2nd Subst. in presence of phosphonomycin,Proteus vulgaris; [10],500 µg/mL
C[C@@H]1O[C@@H]1P(=O)(O)O [sodium phosphonomycin],ED50,Escherichia coli 2017; alone,1000 γ
same,% of effective dose,Escherichia coli 2017; [13],.5%
same,% of effective dose,Escherichia coli 2017; [14],100%
same,% of effective dose,Escherichia coli 2017; [15],5%
same,ED50,Escherichia coli 2017; titrated in the presence of 0.5γ tetracycline,1000 γ
same,enhancement of sodium phosphonomycin activity,"Escherichia coli 2017; two tests, constant quantity of tetracycline",In neither test did a constant quantity of tetracycline enhance sodium phosphonomycin activity
same,interaction of combination,[3]; 1 mg. of novobiocin included in the dose,could be considered as potentiation
same,sodium phosphonomycin required to protect the mice,[3]; 1 mg. of novobiocin included in the dose vs its absence,less sodium phosphonomycin was required to protect the mice
CN(C)C1C(=O)C(C(N)=O)=C(O)C2(O)C(=O)C3=C(O)c4c(O)cccc4C(C)(O)C3CC12 (stereo not drawn) [Tetracycline],ED50,Escherichia coli 2017; alone,50 γ
same,% of effective dose,Escherichia coli 2017; [13],54%
same,% of effective dose,Escherichia coli 2017; [14],1%
same,% of effective dose,Escherichia coli 2017; [15],25%
same,ED50,Escherichia coli 2017; titrated in the presence of 50γ sodium phosphonomycin,13 γ
same,% ED50,"Escherichia coli 2017; tetracycline repeat test, 7 LD50, alone",100%
same,s.c. ED50,"Escherichia coli 2017; tetracycline repeat test, 7 LD50, alone, single dose at 0 hour, phosphonomycin as sodium salt",31 µg
same,% ED50,"Escherichia coli 2017; tetracycline repeat test, 7 LD50, phosphonomycin titrated, tetracycline constant 1",3%
same,% ED50,"Escherichia coli 2017; tetracycline repeat test, 7 LD50, phosphonomycin titrated, tetracycline constant 10",32%
same,% ED50,Escherichia coli 2017; [16],23%
same,s.c. ED50,Escherichia coli 2017; [16],7 µg
same,% ED50,Escherichia coli 2017; [17],100%
same,s.c. ED50,Escherichia coli 2017; [17],31 µg
same,% ED50,Escherichia coli 2017; [18],100%
same,"% ED50, Combined %",Escherichia coli 2017; [18],100%
same,s.c. ED50,"Escherichia coli 2017; tetracycline test 1, 9 LD50, alone, single dose at 0 hour, phosphonomycin as sodium salt",50 µg
same,% ED50,"Escherichia coli 2017; tetracycline test 1, 9 LD50, phosphonomycin titrated, tetracycline constant 0.5",1%
same,% ED50,"Escherichia coli 2017; tetracycline test 1, 9 LD50, phosphonomycin titrated, tetracycline constant 5",10%
same,% ED50,Escherichia coli 2017; [19],54%
same,s.c. ED50,Escherichia coli 2017; [19],27 µg
same,% ED50,Escherichia coli 2017; [20],25%
same,s.c. ED50,Escherichia coli 2017; [20],13 µg
same,enhancement of tetracycline activity,"Escherichia coli 2017; two tests, constant quantity of sodium phosphonomycin",enhanced
same,% ED50,[5]; alone,100%
same,s.c. ED50,[5]; [11],55 µg
same,% ED50,[5]; [21],36%
same,s.c. ED50,[5]; [21],35 µg
same,% ED50,[5]; [22],33%
same,s.c. ED50,[5]; [22],18 µg
Cc1noc(NS(=O)(=O)c2ccc(N)cc2)c1C [sulfisoxazole],potentiation when combined with phosphonomycin,pathogenic bacteria,potentiated
CN(C)[C@@H]1C(O)=C(C(N)=O)C(=O)[C@@]2(O)C(O)=C3C(=O)c4c(O)ccc(Cl)c4[C@@](C)(O)[C@H]3C[C@@H]12 [Chlortetracycline],MIC of 2nd Subst. in presence of ≤ MIC/4 of phosphonomycin,Streptococcus faecalis,0.5
same,MIC,Streptococcus faecalis,0.5 µg/mL
same,MIC of 2nd Subst. in presence of ≤ MIC/4 of phosphonomycin,Proteus vulgaris,0.25
same,MIC,Proteus vulgaris,2 µg/mL
same,potentiation when combined with phosphonomycin,pathogenic bacteria,potentiated
